In one data set the target is T1, Bcl-xL(ΔC) (Homo sapiens, UniProt Q07817).
T1 construct: made in house; host or cells: Escherichia coli BL21(DE3) carrying pUB520
In words: Displacement of AA bound to Bcl-xL(ΔC). It counts as binding. The protocol:
The non-peptide BCl-xL inhibitors, BH3I-1 and BH3I-2, interact with Phe-97 and Ala-142 in the BCl-xL hydrophobic pocket by NMR chemical shift perturbation (Degterev et al., Nat. Cell Biol. 3:173-182, 2001; Lugovskoy et al., J. Amer. Chem. Soc. 124:1234-1240, 2002). It was determined that BH3I-1 competes with AA1 for Bcl-xL(ΔC) binding.

The target in data set [1] is T2, Bcl-xL(ΔC) WT (Homo sapiens, UniProt Q07817).
T2 construct: inferred from Ni-NTA purification and the pET22b(+) NdeI/XhoI cloning); made in house; host or cells: Escherichia coli BL21(DE3) carrying pUB520
T2 sequence (Q07817 1-211 limits assumed, stated change not applied): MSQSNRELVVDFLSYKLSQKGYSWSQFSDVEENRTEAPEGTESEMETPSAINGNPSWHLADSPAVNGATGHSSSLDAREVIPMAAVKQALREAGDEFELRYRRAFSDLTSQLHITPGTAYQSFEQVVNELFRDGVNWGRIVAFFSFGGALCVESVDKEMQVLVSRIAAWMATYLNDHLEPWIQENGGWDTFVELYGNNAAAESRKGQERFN
In words: Pore-forming activity, calcein release from liposomes. The format is biochemical. As to the method:
(§1) Large unilamellar vesicles composed of 60% dioleoylphophatidylcholine and 40% dioleoylphosphatidylglycerol were prepared by the extrusion method of Mayer et al., supra. Lipid stocks, in chloroform, were mixed and dried under a stream of nitrogen gas. The lipid was resuspended by vortexing for 30 min in a solution of 40 mM calcein (Molecular Probes), 25 mM KCl, and 10 mM KOAc, pH 5.0. After 10 freeze-thaw cycles, the lipid suspension was extruded through two 0.1 μm pore diameter Nucleopore filters. Non-entrapped dye was removed by passage over a Sephadex G10 column (Amersham Biosciences). Lipid concentration was measured using the ammonium ferrothiocyanate method (Stewart, Anal. Biochem. 104:10-14, 1980).
(§2) For pore assays, recombinant truncated Bcl-2 family protein or mutant protein (Bcl-xL(ΔC)) (500 nM) was added to large unilamellar vesicles (60 μM lipid concentration) in 100 mM KCl, 10 mM KOAc, pH 5.0, and fluorescence measured (490 nm excitation, 520 nm emission) with a Fluoromax-3 spectrophotometer. Peptides of the BH3 domain were incubated with the BCl-xL(ΔC) 5 min prior to mixing with liposomes. AA1 was added to liposomes 1 min before adding the Bcl-xL(ΔC) protein. Samples for kinetic assays were analyzed in a thermostatted cuvette at 37° C. with constant stirring. Dose responses were measured in black quartz microplates (Hellma) at room temperature. Calcein release was expressed as percentage of maximum release with detergent lysis (0.1% Triton X-100).

The subject of data set [2] is TAMH cells over-expressing Bcl-xL F146L. Put plainly: Cytotoxicity (Alamar Blue) in Bcl-xL transfectants. It counts as cell-based, murine. As to the method: (§3) TAMH cells were transfected with DNA encoding each of the mutant BCl-xL proteins by lipofection (See Example 1 for method). For analysis of BCl-xL expression, 20 μg of cell protein was separated by 20% SDS-PAGE and transferred to nitrocellulose membranes. Immunodetection of BCl-xL was carried out using rabbit anti-Bcl-xL antibody and Protein A/horseradish peroxidase conjugate, followed by chemiluminescent detection. Cells were grown to about 80% confluence in 96-well plates followed by addition of 100 μl of 2X AA1 or staurosporine (STS) solution in complete medium. STS is a natural product originally isolated from the bacterium Streptomyces and found to be capable of inducing apoptosis in certain cells and which induction of apoptosis could be blocked by the expression of a Bcl-2 family protein. Cell viability was determined spectrophotometrically after 24 h treatment as the ratio of reduced and oxidized Alamar Blue (BIOSOURCE) at 570 nm and 600 nm, respectively. All results were normalized against DMSO controls. LD50 values were calculated by non-linear regression analysis using Prism software (Graphpad).

The subject of data set [3] is TAMH cells over-expressing Bcl-xL E92L. In words: Cytotoxicity (Alamar Blue) in Bcl-xL transfectants. It counts as cell-based, murine. The following applies: 24 h. As to the method:
as §3
For orientation: Resazurin is reduced to fluorescent resorufin, in cell work by metabolically active cells.

In data set [4] the test system is TAMH cells over-expressing Bcl-xL A142L. In words: Cytotoxicity (Alamar Blue) in Bcl-xL transfectants. It counts as cell-based, murine. As to the method:
as §3

Data set [5] relates to TAMH cells over-expressing Bcl-xL WT. Put plainly: Cytotoxicity (Alamar Blue) in Bcl-xL transfectants. The format is cell-based, murine. The following applies: 24 h. As to the method: as §3
Data set [6] has as its system TAMH cells over-expressing Bcl-xL F97W. Put plainly: Cytotoxicity (Alamar Blue) in Bcl-xL transfectants. It counts as cell-based, murine. The following applies: 24 h. The protocol:
as §3

The target of data set [7] is T3, Bcl-xL(ΔC) A142L (Homo sapiens, UniProt Q07817, A142L).
T3 construct: inferred from Ni-NTA purification and the pET22b(+) NdeI/XhoI cloning); made in house; host or cells: Escherichia coli BL21(DE3) carrying pUB520
T3 sequence (Q07817 1-211 A142L limits assumed): as the sequence (Q07817 1-211 limits assumed, stated change not applied) above, with A142L counted along it
Put plainly: Pore-forming activity, calcein release from liposomes. The format is biochemical. The following applies: Bcl-xL(ΔC) 500 nM; read-out: Pore Inhibition IC50. As to the method:
as §1
as §2, with “Peptides of the BH3 domain were incubated with the BCl-xL(ΔC) 5 min prior to mixing with liposomes. AA1 was added to liposomes 1 min before adding the Bcl-xL(ΔC) protein.” left out, “X-100). […]” for “X-100).”

In data set [8] the target is T2, Bcl-xL(ΔC) WT. In words: Fluorescence anisotropy binding. The following applies: AA1 200 nM or FITC-labeled BH3 peptide 25 nM; read-out: Dissociation Constant KD. The protocol: (§4) A pET22b (Novagen) vector coding for BCl-xL(ΔC), a mutant Bcl-xL protein without the COOH terminal region, was transformed into Escherichia coli BL21(DE3) cells that carried pUB520 (encoding human Arg tRNA) and grown to an A600 of 0.6. Protein expression was induced with 0.1 mM isopropyl β-D-thiogalactoside at 30° C. The cells were resuspended 1:5 (w/v) in PEB buffer (50 mM Tris, pH 8.0, 200 mM NaCl, 0.2 mM phenylmethylsulfonyl fluoride, 5 mM β-mercaptoethanol, 5 mM imidazole, and 1% (v/v) glycerol), and stirred for 20 min at 4° C. Cells were disrupted by pulse sonication, and the soluble fraction was loaded onto a nickel-nitrilotriacetic acid column (Qiagen) equilibrated with PEB buffer. The column was washed with 40 mM imidazole, eluted with 200 mM imidazole, and the protein fractions were pooled and dialyzed (50 mM Tris, pH 8.0, 200 mM NaCl, 0.2 mM phenylmethylsulfonyl fluoride) at 4° C. overnight. The dialyzed protein was concentrated to 10 mg/ml and fractionated on a Superdex 75 gel filtration column (Amersham Biosciences). The fractions containing Bcl-xL(ΔC) protein were pooled, exchanged into low-salt buffer (same as for previous dialysis buffer, except 50 mM NaCI), and loaded onto a MonoQ anion exchange column (Amersham Biosciences). Protein was eluted from the column with increasing NaCl gradient, pooled and concentrated.
(§5) All reagents were prepared in 0.2 μm-filtered PBS with fresh 1 mM DTT. […] Slit widths were set at 10 nm for both excitation and emission.
For orientation: Fluorescence polarisation rises when a labelled molecule tumbles more slowly, as on binding a larger partner.

Data set [9] deals with T4, Bcl-xL(ΔC) F146L (Homo sapiens, UniProt Q07817, F146L).
T4 construct: inferred from Ni-NTA purification and the pET22b(+) NdeI/XhoI cloning); made in house; host or cells: Escherichia coli BL21(DE3) carrying pUB520
T4 sequence (Q07817 1-211 F146L limits assumed): as the sequence (Q07817 1-211 limits assumed, stated change not applied) above, with F146L counted along it
In words: Fluorescence anisotropy binding. The protocol: as §4, §5

For data set [10], the target named is T3, Bcl-xL(ΔC) A142L. Put plainly: Fluorescence anisotropy binding. The protocol: as §4, §5
In data set [11] the target is T5, Bcl-xL(ΔC) F97W (Homo sapiens, UniProt Q07817, F97W).
T5 construct: inferred from Ni-NTA purification and the pET22b(+) NdeI/XhoI cloning); made in house; host or cells: Escherichia coli BL21(DE3) carrying pUB520
T5 sequence (Q07817 1-211 F97W limits assumed): as the sequence (Q07817 1-211 limits assumed, stated change not applied) above, with F97W counted along it
Put plainly: Fluorescence anisotropy binding. The protocol: as §4, §5

The target of data set [12] is T6, Bcl-xL(ΔC) E92L (Homo sapiens, UniProt Q07817, E92L).
T6 construct: inferred from Ni-NTA purification and the pET22b(+) NdeI/XhoI cloning); made in house; host or cells: Escherichia coli BL21(DE3) carrying pUB520
T6 sequence (Q07817 1-211 E92L limits assumed): as the sequence (Q07817 1-211 limits assumed, stated change not applied) above, with E92L counted along it
In words: Fluorescence anisotropy binding. Conditions: AA1 200 nM or FITC-labeled BH3 peptide 25 nM; read-out: Dissociation Constant KD. The protocol: as §4, §5

Data set [13] has as its target T4, Bcl-xL(ΔC) F146L. Put plainly: Pore-forming activity, calcein release from liposomes. It counts as biochemical. Conditions: Bcl-xL(ΔC) 500 nM; read-out: Pore Inhibition IC50. As to the method:
as §1, §2

In data set [14] the target is T5, Bcl-xL(ΔC) F97W. Described as above. It counts as biochemical. The following applies: Bcl-xL(ΔC) 500 nM; read-out: Pore Inhibition IC50. As to the method: as §1, §2
Data set [15] deals with T6, Bcl-xL(ΔC) E92L. Described as above. It counts as biochemical. Conditions: Bcl-xL(ΔC) 500 nM; read-out: Pore Inhibition IC50. The protocol:
as §1, §2

[16] abbreviates: AA1 200 nM or FITC-labeled BH3 peptide 25 nM, read-out: Dissociation Constant KD.

Broadly, the Ki is a measure of affinity in units of concentration, obtained from inhibition or displacement. High values mean weaker binding, low ones tighter binding. By IC50 is commonly meant the point on the concentration scale where inhibition reaches its midpoint. In general, Kd refers to a measure of binding affinity in units of concentration.

T1 sequence (Q07817 1-211 limits assumed, stated change not applied): as the sequence (Q07817 1-211 limits assumed, stated change not applied) above

For `CC(C)C(C(=O)O)N1C(=O)/C(=C\c2ccc(Br)cc2)SC1=S` (centres unmarked) [BH3I-1], the Ki at Bcl-xL(ΔC) turned out to be 1.87 ± 0.617 µM. Also, the “effect on Bcl-xL pore-forming activity” value at Bcl-xL(ΔC) WT [1] is given as “no effect”.

Take `CCCCCC[C@H]1C(=O)O[C@H](C)[C@H](NC(=O)c2cccc(NC=O)c2O)C(=O)O[C@@H](C)[C@@H]1OC(=O)CC(C)C` [antimycin A1]: the “sensitivity to antimycin A1” value in [2] and in data set [4] was “completely insensitive” each time. Also, the “Cytotoxicity LD50” value in data set [2] (24 h) was over 10 µM; in data set [3] it was 1.72 ± 0.3 µM; in [3] (listed as AA1), 1.72 ± 0.34^2 μM; in data set [4] (24 h), over 10 µM; in data set [5], 0.47 µM; in [5] (listed as AA1) it was 0.47 ± 0.07^ μM. Further, the “Cytotoxicity LD50” value in data set [6] is 5.12 ± 0.9 µM; in data set [6] (listed as AA1), 5.12 ± 0.94^2 μM. For the same compound, the half-maximal inhibitory concentration (IC50) on Bcl-xL(ΔC) A142L [7] is 4.1 ± 1.24 µM; at Bcl-xL(ΔC) WT [1] (Bcl-xL(ΔC) 500 nM, read-out: Pore Inhibition IC50), 2.03 ± 0.24 µM; at Bcl-xL(ΔC) F146L [13], 3.6 ± 0.4 µM; on Bcl-xL(ΔC) F97W [14] it was 3.45 ± 0.34 µM; on Bcl-xL(ΔC) E92L [15], 2.47 ± 0.3 µM. The Kd at Bcl-xL(ΔC) WT [8] came out at 2.36 ± 1.41 µM; on Bcl-xL(ΔC) F146L [9] (setting [16]), 20 ± 9.4 µM; on Bcl-xL(ΔC) A142L [10] (setting [16]), 41.8 ± 21.4 µM; at Bcl-xL(ΔC) F97W [11] (setting [16]), 17.6 ± 5.2 µM; at Bcl-xL(ΔC) E92L [12], 5.06 ± 0.86 µM. The compound further showed a decrease in affinity at Bcl-xL(ΔC) F146L [9] of about 10 fold. Further, the “increase in Kd compared with Bcl-xL wt(ΔC)” value at Bcl-xL(ΔC) A142L [10] came out at 20 fold; on Bcl-xL(ΔC) F97W [11] it was 8 fold. At Bcl-xL(ΔC) WT [1], the “effect on Bcl-xL pore-forming activity” value is given as “inhibited”.

Values taken from US20050239873A1 (priority 1999, published 2005).
